According to US20020198221A1, “N-methyl-N-(3-{3-[2-thienylcarbonyl]-pyrazol-[1,5-alpha]-pyrimidin-7-yl}phenyl)acetamide and compositions and, methods related thereto” (priority 1999, published 2002):
“Also recorded” adds a separate entry of the source.

Legend:
[1] = tested on: rats; assay: one-trial passive avoidance test (amnesia); format: in vivo, rat; conditions: for Amnestic Liability Index: ratio ED50 decreased motor activity / MED to produce amnesia
Protocol: This effect can be studied in rats by the one-trial passive avoidance test. In this test an undrugged, naive rat is given an electric shock when it moves from the illuminated side to the darkened side of a two-compartment chamber. When tested for recall of this training 24 hours later, a placebo-injected animal will show excellent recall of the aversive training, and thus a high latency time for entering the darkened side.

[2] = tested on: rats; assay: potentiation of ETOH delivered 24 hours after dosing (hangover liability); format: in vivo, rat; conditions: for Hangover Liability Index: ETOH 24 hours after administration; for potentiation of ETOH delivered 24 hours after drug treatment: rat, in vivo
Protocol: The important observation that Compound 1 causes very little potentiation of ETOH was extended by determining a Hangover Liability Index, the measure of the ability of the drug to potentiate ETOH 24 hours after administration (see Table 3 below). Sedative-hypnotic agents have been reported to produce drowsiness, confusion and other side effects in man on the day following the normal overnight use of these compounds.

[3] = tested on: rats; assay: potentiation of ETOH-induced loss of righting response, ETOH 60 minutes after dosing; format: in vivo, rat; conditions: for ETOH Liability Index: ratio ED50 motor activity / MED ETOH potentiation; for Minimum Effective Dose (MED mg/kg) to potentiate ETOH-induced loss of righting response: rats, ETOH 3.2 g/kg i.p. 60 minutes after dosing
Excerpt: Benzodiazepines and barbiturate sedative-hypnotics produce a profound potentiation of the deleterious effects of ethanol (ETOH) in man and animals (Ayd, supra). Intraperitoneal ETOH alone, when administered to rats at a dose of 3.2 g/kg, produces a reliable loss of righting response. The loss of righting response caused by ETOH can be used to measure the possible interaction of ETOH with test drugs. This is done by delivering the ETOH and a test drug sequentially, and determining the Minimum Effective Dose of test drug which will potentiate the time that ETOH produces the loss of righting response. The ETOH Liability Index for a drug can be determined by calculating the ratio of (1) the ED50 of the test drug to decrease motor activity (a measure of sedation) to (2) the Minimum Effective Dose (MED) of the test drug to potentiate the time for ETOH-induced loss of righting response.
ETOH Liability Indices were determined experimentally for Compound 1, flurazepam and triazolam by intraperitoneally delivering ETOH (3.2 g/kg) to the animals 60 minutes after dosing with each test drug (see Table 2 below).

[4] = tested on: GABAA receptor; assay: [35S]TBPS binding to rat cortex membranes
Excerpt: TBPS binds to a site on the GABAA receptor which is closely associated with the chloride channel, and an increase in TBPS binding correlates with increased activation of the chloride conductance (i.e., enhanced GABAA receptor function). Compounds which act as agonists at the benzodiazepine site increase TBPS binding to varying degrees, which reflects their relative efficacies.

[5] = tested on: rats; assay: motor activity in rats (activity meter); format: in vivo, rat; conditions: for ED50: Rattus norvegicus
Protocol: (§1) The sedative effects of Compound 1 were measured in rats using a panel of standard tests which monitor the effects of drugs on motor activity, muscle relaxation and motor coordination.
(§2) This latter compound is well characterized as a competitive antagonist at the benzodiazepine site, which can reverse the effects of benzodiazepine site agonists.
(§3) Administration of benzodiazopines to animals and to man for periods of several weeks can result in a tolerance to their sedative effects (Finkle, supra). In order to assess tolerance to Compound 1, its effects were tested on rat motor activity, and on grip strength using the inclined screen procedures after single and repeated administrations. The results of these studies were then compared to results gathered from rats which had received similar dosings of triazolam.

[6] = tested on: rats; assay: inclined screen grip strength test; format: in vivo, rat; conditions: for ED50: Rattus norvegicus
Protocol: as §1, §2, §3

[7] = molecular target: benzodiazepine site on the GABAA receptor; assay: [3H]flunitrazepam binding to rat cortex; conditions: for IC50: rat cortex, read-out: IC50, displacement of [3H]flunitrazepam binding
[8] = tested on: rats; assay: Thirsty Rat Conflict Procedure; format: in vivo
Protocol: The Thirsty Rat Conflict Procedure involves rats which are deprived of water for 48 hours. They are then given brief electrical shocks following each 20th lick of a drinking tube. These shocks create a “conflict situation” which results in a marked decrease in licking (drinking) behavior.

[9] = tested on: rats; assay: panel of standard tests for sedative effects in rats (motor activity, muscle relaxation, motor coordination); format: in vivo, rat
Protocol: as §1

[10] = tested on: squirrel monkeys; assay: EEG studies in squirrel monkeys; format: in vivo, squirrel monkey; conditions: 4.0 mg/kg i.m.
Protocol: (§4) Compound 1 produced dose-related increases in sleep duration in rats, with a minimum effective dose of 2.0 mg/kg.

[11] = tested on: squirrel monkeys; assay: Squirrel Monkey Conflict Procedure; format: in vivo
Protocol: The Squirrel Monkey Conflict Procedure involves monkeys which are initially trained to press a bar to receive a food reward. In later sessions the animals were given occasional electrical shocks following randomly selected bar presses. These animals responded to the conflict situation by substantially lowering their levels of bar-pressing activity. […] This increase in conflict response reflects the anxiolytic effects of the drug. The increase drops off at 4.0 mg/kg, which may be due to a subtle sedative effect of the compound which begins developing in this dose range. The inverted-U shaped dose-response function described above for Compound 1 is consistent with the profile of other sedative-hypnotic drugs of the benzodiazepine-ligand class, and reflects the sedative properties of these drugs (Cook and Sepinwall, supra).

[12] = tested on: rats; assay: rod walking test; format: in vivo; conditions: Rattus norvegicus, oral
Protocol: as §1

[13] = tested on: rats; assay: sleep duration in rats; format: in vivo, rat
Protocol: as §4

[14] = tested on: rats; assay: prevention of electrical shock induced convulsions; format: in vivo; conditions: Rattus norvegicus; oral; 150 mA, 60 Hz transcorneal shock for 0.3 seconds; read-out: ED50 blocking electrical shock induced convulsions
[15] = molecular target: benzodiazepine site on the GABAA receptor; assay: [3H]flunitrazepam binding to rat cerebellum membranes; conditions: read-out: IC50, inhibition of [3H]flunitrazepam binding
[16] = tested on: rats; assay: prevention of chemically induced convulsions in rats; format: in vivo, rat; conditions: for ED50: Rattus norvegicus
Excerpt: Benzodiazepine sedative-hypnotic agents are potent anticonvulsants in animals, and are used clinically for the treatment of status epilepticus. Oral doses of Compound 1 were effective in blocking convulsions in rats which resulted from injections of agents know to induce convulsion (see Table 1 below).

[17] = tested on: squirrel monkeys; assay: vigilance test (reaction time) in squirrel monkeys; format: in vivo, squirrel monkey; conditions: >1 mg/kg orally one hour before testing
Excerpt: Vigilance tests based on reaction time measurements in monkeys measure drug induced slowing of responses and decreases in attentional or cognitive processes. Squirrel monkeys were trained to respond to a visual trigger by bar pressing for a food reward.

[18] = Table 2, read-out: Decrease in Motor Activity (ED50 mg/kg)
[19] = inclined screen, fourth day of daily dosing, read-out: ED50 grip strength, tolerance study
[20] = inclined screen, single administration, read-out: ED50 grip strength, tolerance study
[21] = fourth day of daily dosing, read-out: ED50 motor activity, tolerance study
[22] = single administration, read-out: ED50 motor activity, tolerance study
[23] = 3.1 mg/kg Compound 1 p.o. + 10 mg/kg Ro 15-1788 i.p.

With `CCN(CC)CCN1C(=O)CN=C(c2ccccc2F)c2cc(Cl)ccc21` [flurazepam] the “Amnestic Liability Index” value [1] was 3.1, the “Hangover Liability Index” value [2] was 2.5 and the “potentiation of ETOH delivered 24 hours after drug treatment” value (“potentiation of ETOH delivered 24 hours” for short) [2] was “significantly potentiated”. For the same molecule, the “ETOH Liability Index” value [3] was 4.98, the “Minimum Effective Dose (MED mg/kg) to potentiate ETOH-induced loss of righting response” value [3] was 5.0 mg/kg and the “Emax, maximum enhancement of TBPS binding” value (from here on “Emax, maximum enhancement”) [4] was 71%. It also gave an ED50 [5, 18] of 24.9 mg/kg.

`Cc1nnc2n1-c1ccc(Cl)cc1C(c1ccccc1Cl)=NC2` [triazolam, reference compound] was tested, and the “Amnestic Liability Index” value [1] was 1.6, the “Hangover Liability Index” value [2] was 10 and the “potentiation of ETOH delivered 24 hours” value [2] was “significantly potentiated”. The “ETOH Liability Index” value [3] was 20, the “Minimum Effective Dose (MED mg/kg) to potentiate ETOH-induced loss of righting response” value [3] was “.08 mg/kg” and the ED50 [6, 19] was over 100 mg/kg. For the same molecule, the ED50 [6, 20] was 5.1 mg/kg, the “Emax, maximum enhancement” value [4] was 78% and the ED50 [5, 18] was 1.6 mg/kg. For the same molecule, the ED50 [5, 21] was over 100 mg/kg, the ED50 [5, 22] was 3.9 mg/kg and the IC50 [7] was 0.5 nM.

With `CN1C(=O)CN=C(c2ccccc2)c2cc(Cl)ccc21` [diazepam] the “Emax, maximum enhancement” value [4] was 55% and the IC50 [7] was 17 nM.

For `CC(=O)Nc1cccc(-c2ccnc3c(C(=O)c4cccs4)cnn23)c1` [desmethyl metabolite of Compound 1], the “effect in thirsty rat conflict model” value ([8]; 12 mg/kg) was “without effect”, the “sedative effects in the test panel” value ([9]; motor activity, inclined screen, rod walking) was “did not show sedative effects” and the “Emax, maximum enhancement” value [4] was 28%. For the same molecule, the “times less potent than Compound 1 in displacing radiolabeled flunitrazepam” value [7] was “approximately 74 times” and the IC50 [7] was 725 nM.

For `CC(=O)N(C)c1cccc(-c2ccnc3c(C(=O)c4cccs4)cnn23)c1` [Compound 1, N-methyl-N-(3-{3-[2-thienylcarbonyl]-pyrazol-[1,5-α]-pyrimidin-7-yl}phenyl)acetamide], the “changes in EEG power spectrum” value [10] was “a relative decrease in alpha activity and an increase in beta activity”, the amnestic effect ([1]; rat, in vivo) was “small amnestic effect compared to triazolam or flurazepam” and the “Amnestic Liability Index” value [1] was 0.15. The “increase in conflict response” value ([11]; 4.0 mg/kg) was “drops off”, the “increase above baseline responses to conflict situation” value ([11]; oral 2.0 mg/kg) was 100% and the “increase in number of shocks accepted vs vehicle control” value ([8]; oral 0.3 mg/kg) was 100%. For the same molecule, the ED50 [12] was 3 mg/kg, the “Hangover Liability Index” value [2] was 0.0 and the “potentiation of ETOH delivered 24 hours” value [2] was “failed to potentiate ETOH”. The “minimum effective dose for increase in sleep duration” value [13] was 2.0 mg/kg, the “times less ETOH liability compared to triazolam and flurazepam” value ([3]; rat, in vivo, oral, 60 min) was at least 10 times and the “ETOH Liability Index” value [3] was 0.48. For the same molecule, the “Minimum Effective Dose (MED mg/kg) to potentiate ETOH-induced loss of righting response” value [3] was 2.5 mg/kg, the “sedative potency relative to reference drugs” value [9] was “approximately equipotent with triazolam and more potent than zolpidem and flurazepam” and the “effect on grip strength (inclined screen) with Ro 15-1788 co-treatment” value [6, 23] was “reverse the impairment of grip strength; also recorded: reversed”. For the same molecule, the ED50 [6, 19] was 18.3 mg/kg, the ED50 [6, 20] was 2.6 mg/kg and the ED50 ([6]; po, inclined screen grip strength test, read-out: ED50 for muscle relaxant effects) was 2.7 mg/kg. It also gave an ED50 [14] of 5.5 mg/kg, an IC50 [15] of 2 nM and an ED50 ([16]; rats, oral, inducer Bicuculline (iv), read-out: ED50 preventing convulsion) of 2.3 mg/kg. It also gave an ED50 ([16]; rats, oral, inducer Pentylenetetrazol (iv), read-out: ED50 preventing convulsion) of 2.5 mg/kg, an ED50 ([16]; read-out: ED50 preventing convulsion, rats, oral, inducer Picrotoxin (sc)) of 1.9 mg/kg and an ED50 ([16]; read-out: ED50 preventing convulsion, rats, oral, inducer Strychnine (sc)) of 4.4 mg/kg. The “anticonvulsant potency relative to reference drugs” value ([16]; all five methods (four chemical inducers and electrical shock)) was “less than that of triazolam and greater than that of flurazepam”, the “Emax, maximum enhancement” value [4] was 65% and the “effect on motor/locomotor activity with Ro 15-1788 co-treatment” value [5, 23] was “antagonize the decreases in motor activity; also recorded: reversed”. For the same molecule, the ED50 [5, 18] was 1.2 mg/kg, the ED50 [5, 21] was 14.5 mg/kg and the ED50 ([5]; po, activity meter, read-out: ED50 for decrease in motor activity) was 1.2 mg/kg. The ED50 [5, 22] was 2.4 mg/kg, the “effect on accuracy and latency of responses” value [17] was “dose related decrements in both the accuracy and latency of the responses” and the IC50 [7] was 9.8 nM.

`CN1C(=O)CN=C(c2ccccc2F)c2cc([N+](=O)[O-])ccc21` [flunitrazepam] gave an IC50 [7] of 114 nM.

`Cc1ccc(-c2nc3ccc(C)cn3c2CC(=O)N(C)C)cc1` [zolpidem] showed an IC50 [7] of 26 nM.
